Data published in US20260285850A1, “SUBSTITUTED OXAZOLIDINONES AND IMIDAZOLINONES AS HERBICIDES” (FMC CORPORATION, priority 2023, published 2026).

What was measured:
Type in all cases: in vivo
corn (Zea mays) [1] = experiment: Test A preemergence soil spray, visual injury rating 0-100; conditions: 10 days; for Corn plant response rating: 31 g ai/ha, 0 to 100 scale; for Corn plant response rating (0 to 100 scale): 125 g ai/ha, 0 = no effect, 100 = complete control
Excerpt: (§1) Seeds of plant species selected from barnyardgrass (Echinochloa crus-galli), blackgrass (Alopecurus myosuroides), corn (Zea mays), foxtail, giant (giant foxtail, Setaria faberi), green foxtail (Setaria viridis), goosegrass (Eleusine indica), kochia (Bassia scoparia), oat, wild (wild oat, Avena fatua), palmer (palmer amaranth, palmer pigweed, Amaranthus palmeri), ragweed (common ragweed, Ambrosia artemisiifolia), ryegrass, Italian (italian ryegrass, Lolium multiflorum), soybean (Glycine max) and wheat (Triticum aestivum) were planted into a blend of loam soil and sand and treated preemergence with a directed soil spray using test chemicals formulated in a non-phytotoxic solvent mixture which included a surfactant.
(§2) At the same time, plants selected from these crops and weed species and also galium (catchweed bedstraw, Galium aparine) and horseweed (Erigeron canadensis) were planted in pots containing the same blend of loam soil and sand and treated with postemergence applications of test chemicals formulated in the same manner. Plants ranged in height from 2 to 10 cm and were in the one- to two-leaf stage for the postemergence treatment. Treated plants and untreated controls were maintained in a greenhouse for 10 days, after which time all treated plants were compared to untreated controls and visually evaluated for injury. Plant response ratings, summarized in Table A, are based on a 0 to 100 scale where 0 is no effect and 100 is complete control. A dash (-) response means no test result.

[2] = system: barnyardgrass (Echinochloa crus-galli); experiment: as above; conditions: 10 days; for Barnyardgrass plant response rating: 31 g ai/ha, 0 to 100 scale; for Barnyardgrass plant response rating (0 to 100 scale): 125 g ai/ha, 0 = no effect, 100 = complete control
Excerpt: as §1, §2

soybean (Glycine max) [3] = experiment: as above; conditions: 10 days; for Soybean plant response rating: 31 g ai/ha, 0 to 100 scale; for Soybean plant response rating (0 to 100 scale): 125 g ai/ha, 0 = no effect, 100 = complete control
Excerpt: as §1, §2

[4] = system: ragweed (common ragweed, Ambrosia artemisiifolia); experiment: as above; conditions: 10 days; for Ragweed plant response rating: 31 g ai/ha, 0 to 100 scale; for Ragweed plant response rating (0 to 100 scale): 125 g ai/ha, 0 = no effect, 100 = complete control
Excerpt: as §1, §2

[5] = system: palmer (palmer amaranth, palmer pigweed, Amaranthus palmeri); experiment: as above; conditions: 10 days; for Amaranth, Palmer (Pigweed, Palmer) plant response rating: 31 g ai/ha, 0 to 100 scale; for Amaranth, Palmer plant response rating (0 to 100 scale): 125 g ai/ha, 0 = no effect, 100 = complete control
Excerpt: as §1, §2

[6] = system: ryegrass, Italian (italian ryegrass, Lolium multiflorum); experiment: as above; conditions: 10 days; for Ryegrass, Italian plant response rating: 31 g ai/ha, 0 to 100 scale; for Ryegrass, Italian plant response rating (0 to 100 scale): 125 g ai/ha, 0 = no effect, 100 = complete control
Excerpt: as §1, §2

[7] = system: blackgrass (Alopecurus myosuroides); experiment: as above; conditions: 10 days; for Blackgrass plant response rating: 31 g ai/ha, 0 to 100 scale; for Blackgrass plant response rating (0 to 100 scale): 125 g ai/ha, 0 = no effect, 100 = complete control
Excerpt: as §1, §2

kochia (Bassia scoparia) [8] = experiment: as above; conditions: 10 days; for Kochia plant response rating: 31 g ai/ha, 0 to 100 scale; for Kochia plant response rating (0 to 100 scale): 125 g ai/ha, 0 = no effect, 100 = complete control
Excerpt: as §1, §2

[9] = system: oat, wild (wild oat, Avena fatua); experiment: as above; conditions: 10 days; for Oat, Wild plant response rating: 31 g ai/ha, 0 to 100 scale; for Oat, Wild plant response rating (0 to 100 scale): 125 g ai/ha, 0 = no effect, 100 = complete control
Excerpt: as §1, §2

[10] = system: wheat (Triticum aestivum); experiment: as above; conditions: 10 days; for Wheat plant response rating: 31 g ai/ha, 0 to 100 scale; for Wheat plant response rating (0 to 100 scale): 125 g ai/ha, 0 = no effect, 100 = complete control
Excerpt: as §1, §2

corn (Zea mays) [11] = experiment: Test A postemergence application, visual injury rating 0-100; conditions: Postemergence
Excerpt: as §1, §2

[12] = system: galium (catchweed bedstraw, Galium aparine); experiment: as above; conditions: Postemergence
Excerpt: as §1, §2

[13] = system: barnyardgrass (Echinochloa crus-galli); experiment: as above; conditions: Postemergence
Excerpt: as §1, §2

soybean (Glycine max) [14] = experiment: as above; conditions: Postemergence
Excerpt: as §1, §2

[15] = system: ragweed (common ragweed, Ambrosia artemisiifolia); experiment: as above; conditions: Postemergence
Excerpt: as §1, §2

[16] = system: palmer (palmer amaranth, palmer pigweed, Amaranthus palmeri); experiment: as above; conditions: Postemergence
Excerpt: as §1, §2

[17] = system: ryegrass, Italian (italian ryegrass, Lolium multiflorum); experiment: as above; conditions: Postemergence
Excerpt: as §1, §2

[18] = system: blackgrass (Alopecurus myosuroides); experiment: as above; conditions: Postemergence
Excerpt: as §1, §2

kochia (Bassia scoparia) [19] = experiment: as above; conditions: Postemergence
Excerpt: as §1, §2

[20] = system: horseweed (Erigeron canadensis); experiment: as above; conditions: Postemergence
Excerpt: as §1, §2

[21] = system: oat, wild (wild oat, Avena fatua); experiment: as above; conditions: Postemergence
Excerpt: as §1, §2

[22] = system: wheat (Triticum aestivum); experiment: as above; conditions: Postemergence
Excerpt: as §1, §2

[23] = 31 g ai/ha, greenhouse 10 days, 0 no effect, 100 complete control
[24] = 125 g ai/ha, 10 days, 0 is no effect, 100 is complete control

CCS(=O)(=O)NC(=O)C1C=CC(NC(=O)C2(C)CN(c3cc(Cl)cc(Cl)c3)C(=O)O2)C1 (stereo not shown) [Compound 83]
90: Kochia plant response rating (0 to 100 scale) (kochia (Bassia scoparia) [8]) | Corn plant response rating (0 to 100 scale) (corn (Zea mays) [11]; [24]) | Barnyardgrass plant response rating (0 to 100 scale) [13, 23] | Barnyardgrass plant response rating (0 to 100 scale) [13, 24] | Amaranth, Palmer / Pigweed, Palmer plant response rating (0 to 100 scale) [16, 24] | Blackgrass plant response rating (0 to 100 scale) [18, 24] | Oat, Wild plant response rating (0 to 100 scale) [21, 24] | Wheat plant response rating (0 to 100 scale) [22, 23] | Wheat plant response rating (0 to 100 scale) [22, 24]
30: Barnyardgrass plant response rating [2]
70: Barnyardgrass plant response rating (0 to 100 scale) [2] | Amaranth, Palmer (Pigweed, Palmer) plant response rating [5] | Ryegrass, Italian plant response rating (0 to 100 scale) [17, 24] | Kochia plant response rating (0 to 100 scale) (kochia (Bassia scoparia) [19]; [23]) | Kochia plant response rating (0 to 100 scale) (kochia (Bassia scoparia) [19]; [24]) | Horseweed plant response rating (0 to 100 scale) [20, 24]
10: Soybean plant response rating (0 to 100 scale) (soybean (Glycine max) [3])
60: Corn plant response rating (0 to 100 scale) (corn (Zea mays) [1]) | Ryegrass, Italian plant response rating [6] | Oat, Wild plant response rating (0 to 100 scale) [9] | Wheat plant response rating (0 to 100 scale) [10] | Soybean plant response rating (0 to 100 scale) (soybean (Glycine max) [14]; [24]) | Ragweed plant response rating (0 to 100 scale) [15, 23] | Ryegrass, Italian plant response rating (0 to 100 scale) [17, 23] | Blackgrass plant response rating (0 to 100 scale) [18, 23]
80: Ryegrass, Italian plant response rating (0 to 100 scale) [6] | Galium plant response rating (0 to 100 scale) [12, 23] | Galium plant response rating (0 to 100 scale) [12, 24] | Ragweed plant response rating (0 to 100 scale) [15, 24] | Amaranth, Palmer / Pigweed, Palmer plant response rating (0 to 100 scale) [16, 23] | Oat, Wild plant response rating (0 to 100 scale) [21, 23]
0: Corn plant response rating (corn (Zea mays) [1]) | Ragweed plant response rating [4] | Blackgrass plant response rating [7] | Kochia plant response rating (kochia (Bassia scoparia) [8]) | Oat, Wild plant response rating [9] | Wheat plant response rating [10]
40: Soybean plant response rating (soybean (Glycine max) [3]) | Blackgrass plant response rating (0 to 100 scale) [7]
100: Amaranth, Palmer plant response rating (0 to 100 scale) [5]
20: Ragweed plant response rating (0 to 100 scale) [4] | Corn plant response rating (0 to 100 scale) (corn (Zea mays) [11]; [23]) | Soybean plant response rating (0 to 100 scale) (soybean (Glycine max) [14]; [23]) | Horseweed plant response rating (0 to 100 scale) [20, 23]

CC1(C(=O)NC2C=CC(C(=O)NS(=O)(=O)C3CC3)C2)CN(c2cc(Cl)cc(Cl)c2)C(=O)O1 (stereo not shown) [Compound 85]
20: Barnyardgrass plant response rating [2] | Ragweed plant response rating (0 to 100 scale) [4] | Blackgrass plant response rating (0 to 100 scale) [7] | Kochia plant response rating (kochia (Bassia scoparia) [8]) | Oat, Wild plant response rating [9] | Corn plant response rating (0 to 100 scale) (corn (Zea mays) [11]; [23])
80: Amaranth, Palmer (Pigweed, Palmer) plant response rating [5] | Ryegrass, Italian plant response rating (0 to 100 scale) [6] | Galium plant response rating (0 to 100 scale) [12, 24] | Blackgrass plant response rating (0 to 100 scale) [18, 24] | Oat, Wild plant response rating (0 to 100 scale) [21, 23] | Wheat plant response rating (0 to 100 scale) [22, 23]
10: Soybean plant response rating (0 to 100 scale) (soybean (Glycine max) [3])
60: Ryegrass, Italian plant response rating [6] | Soybean plant response rating (0 to 100 scale) (soybean (Glycine max) [14]; [24]) | Ragweed plant response rating (0 to 100 scale) [15, 24] | Ryegrass, Italian plant response rating (0 to 100 scale) [17, 23] | Blackgrass plant response rating (0 to 100 scale) [18, 23] | Horseweed plant response rating (0 to 100 scale) [20, 23] | Horseweed plant response rating (0 to 100 scale) [20, 24]
30: Corn plant response rating (0 to 100 scale) (corn (Zea mays) [1]) | Ragweed plant response rating [4] | Ragweed plant response rating (0 to 100 scale) [15, 23]
50: Oat, Wild plant response rating (0 to 100 scale) [9] | Galium plant response rating (0 to 100 scale) [12, 23] | Kochia plant response rating (0 to 100 scale) (kochia (Bassia scoparia) [19]; [23])
40: Soybean plant response rating (0 to 100 scale) (soybean (Glycine max) [14]; [23]) | Amaranth, Palmer / Pigweed, Palmer plant response rating (0 to 100 scale) [16, 23]
70: Ryegrass, Italian plant response rating (0 to 100 scale) [17, 24] | Kochia plant response rating (0 to 100 scale) (kochia (Bassia scoparia) [19]; [24])
0: Corn plant response rating (corn (Zea mays) [1]) | Soybean plant response rating (soybean (Glycine max) [3]) | Blackgrass plant response rating [7] | Wheat plant response rating [10]
90: Barnyardgrass plant response rating (0 to 100 scale) [2] | Amaranth, Palmer plant response rating (0 to 100 scale) [5] | Kochia plant response rating (0 to 100 scale) (kochia (Bassia scoparia) [8]) | Wheat plant response rating (0 to 100 scale) [10] | Corn plant response rating (0 to 100 scale) (corn (Zea mays) [11]; [24]) | Barnyardgrass plant response rating (0 to 100 scale) [13, 23] | Barnyardgrass plant response rating (0 to 100 scale) [13, 24] | Amaranth, Palmer / Pigweed, Palmer plant response rating (0 to 100 scale) [16, 24] | Oat, Wild plant response rating (0 to 100 scale) [21, 24] | Wheat plant response rating (0 to 100 scale) [22, 24]
